Source: ChEMBL document CHEMBL1201862, “PubChem BioAssay data set” (2004)
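1) Cells in 96-well plates. 2) Compound, 48 h, 5 concentrations. 3) Linear interpolation between surrounding doses. 4) Unreached endpoint = highest concentration. Here, GI50 denotes the concentration required for 50% inhibition of growth.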 The source made the active and inactive calls. Rule as the data show it: active = GI50 up to about 1.1 µM and inactive = higher. Where a SMILES comes first, the peptide text is derived from it. Bridges are numbered along the chain shown (N, C = ends). Peptide text beside a SMILES is read from it. [ ]: non-standard residue; d: D form. The star is where a group is joined. * marks the point of attachment. ξ: configuration not given here. X28 = O=C(/C=C/C=C/C=C/C=C/C=C/C(=O)*)NC1=C(O)CCC1=O; NMeA = CN[C@@H](C)C(=O)O; ξF = NC(Cc1ccccc1)C(=O)O; Cbz = O=C(OCc1ccccc1)*; ξA = CC(N)C(=O)O; CH2Cl = ClC*

Columns and labels:
Assay in all cases: NCI tumour cell line growth inhibition, 48 h
BT-549 = system: BT-549
COLO 205 = system: COLO 205
EKVX = system: EKVX
HCC 2998 = system: HCC 2998
HOP-92 = system: HOP-92
HT-29 = system: HT-29
K562 = system: K562
LOX IMVI = system: LOX IMVI
MDA-MB-231 = system: MDA-MB-231
MDA-N = system: MDA-N
NCI-H522 = system: NCI-H522
OVCAR-8 = system: OVCAR-8
PC-3 = system: PC-3
SF-268 = system: SF-268
SK-MEL-2 = system: SK-MEL-2
SK-MEL-5 = system: SK-MEL-5
SNB-19 = system: SNB-19
SR = system: SR
U-251 = system: U-251
MOLT-4 = system: MOLT-4

SMILES | GI50 (BT-549) | GI50 (COLO 205) | GI50 (EKVX) | GI50 (HCC 2998) | GI50 (HOP-92) | GI50 (HT-29) | GI50 (K562) | GI50 (LOX IMVI) | GI50 (MDA-MB-231) | GI50 (MDA-N) | GI50 (NCI-H522) | GI50 (OVCAR-8) | GI50 (PC-3) | GI50 (SF-268) | GI50 (SK-MEL-2) | GI50 (SK-MEL-5) | GI50 (SNB-19) | GI50 (SR) | GI50 (U-251) | GI50 (MOLT-4)
Cc1nc2ccccc2[nH]/c1=N/Nc1ccccc1 | 20.7 µM (inactive) | 0.108 µM (active) | 4.17 µM (inactive) | 38.9 µM (inactive) | 3.8 µM (inactive) | 0.0417 µM (active) | 17.9 µM (inactive) | 23.3 µM (inactive) | 28 µM (inactive) | 19.5 µM (inactive) | 26.1 µM (inactive) | 20.3 µM (inactive) | 26.1 µM (inactive) | 27.6 µM (inactive) | 30.4 µM (inactive) | 14 µM (inactive) | 45.1 µM (inactive) | 19.3 µM (inactive) | 48.3 µM (inactive) | 
COc1cc(/C=C/C=C2\CC/C(=C\C=C\c3ccc(O)c(OC)c3)C2=O)ccc1O | > 100 µM (inactive) | > 100 µM (inactive) | > 97.3 µM (inactive) | > 100 µM (inactive) | > 100 µM (inactive) | > 100 µM (inactive) | 15.2 µM (inactive) | > 100 µM (inactive) | > 59.7 µM (inactive) | > 100 µM (inactive) | 1.45 µM (inactive) | > 100 µM (inactive) | > 100 µM (inactive) | > 100 µM (inactive) | > 100 µM (inactive) | > 87.9 µM (inactive) | > 100 µM (inactive) | 2.53 µM (inactive) | > 100 µM (inactive) | 1.02 µM (active)
CC(C)CC(NC(=O)OCc1ccccc1)C(=O)NC(Cc1ccccc1)C(=O)CCl (stereo not drawn) (Cbz-Leu-Phe-CH2Cl; configuration not given here) | 2.47 µM (inactive) | 2.93 µM (inactive) | 18.6 µM (inactive) | 13.2 µM (inactive) | 1.89 µM (inactive) | 2.68 µM (inactive) | 0.7 µM (active) | 0.719 µM (active) | 1.69 µM (inactive) | 1.56 µM (inactive) | 1.38 µM (inactive) | 2.08 µM (inactive) | 4.76 µM (inactive) | 4.86 µM (inactive) | 2.05 µM (inactive) | 1.82 µM (inactive) | 23.6 µM (inactive) | 0.501 µM (active) | 8.38 µM (inactive) | 0.664 µM (active)
Cc1c(-c2ccccc2)cc(O)c2nc3ccccc3n12 | 12.6 µM (inactive) | > 100 µM (inactive) | > 100 µM (inactive) | 17.8 µM (inactive) | 10.2 µM (inactive) | > 100 µM (inactive) | 5.82 µM (inactive) | 4.99 µM (inactive) | 5.61 µM (inactive) | 46.8 µM (inactive) | 20.4 µM (inactive) | > 100 µM (inactive) | 31.7 µM (inactive) | > 10 µM (inactive) |  | 44 µM (inactive) | 96.8 µM (inactive) | 7.06 µM (inactive) | 6.75 µM (inactive) | 8.28 µM (inactive)
CNn1c(-c2ccccc2)n[nH]c1=O | > 100 µM (inactive) | > 100 µM (inactive) | > 100 µM (inactive) | > 100 µM (inactive) | > 100 µM (inactive) | > 100 µM (inactive) | > 100 µM (inactive) | > 100 µM (inactive) | > 100 µM (inactive) | > 100 µM (inactive) | > 100 µM (inactive) | > 100 µM (inactive) | > 100 µM (inactive) | > 100 µM (inactive) | > 100 µM (inactive) | > 100 µM (inactive) | > 100 µM (inactive) | > 100 µM (inactive) | > 100 µM (inactive) | > 100 µM (inactive)
CC1=NN=C(N)N/C1=C\C(Sc1ccc(Cl)cc1)c1ccc([N+](=O)[O-])cc1 (stereo not drawn) | 80 µM (inactive) | > 100 µM (inactive) | 71.8 µM (inactive) | > 100 µM (inactive) | > 100 µM (inactive) | > 100 µM (inactive) | 62.4 µM (inactive) | 51.8 µM (inactive) | > 100 µM (inactive) | 89.1 µM (inactive) | 26.9 µM (inactive) | > 100 µM (inactive) | 66.7 µM (inactive) | 47.4 µM (inactive) | > 100 µM (inactive) | 74.5 µM (inactive) | > 100 µM (inactive) | > 100 µM (inactive) | 66.7 µM (inactive) | 93.5 µM (inactive)
NS(=O)(=O)c1ccc(NNC(=O)c2cccc3c(=O)c4ccccc4[nH]c23)cc1 | 62.4 µM (inactive) | > 100 µM (inactive) | 43.6 µM (inactive) | > 100 µM (inactive) | 34.4 µM (inactive) | 66.8 µM (inactive) | 41.7 µM (inactive) | 30.1 µM (inactive) | 51.6 µM (inactive) | > 100 µM (inactive) | 41.4 µM (inactive) | > 100 µM (inactive) | 65.6 µM (inactive) | 71.8 µM (inactive) | > 100 µM (inactive) | 34 µM (inactive) | > 100 µM (inactive) | 49.8 µM (inactive) | 55.1 µM (inactive) | 42.2 µM (inactive)
CC[C@H]1CN(C)[C@H]2Cc3c([nH]c4ccccc34)C(=O)C[C@H]1C2C(=O)OC (stereo partly drawn) | > 100 µM (inactive) | > 100 µM (inactive) | > 100 µM (inactive) | > 100 µM (inactive) | > 100 µM (inactive) | > 100 µM (inactive) |  | > 100 µM (inactive) | > 100 µM (inactive) | > 100 µM (inactive) | > 100 µM (inactive) | > 100 µM (inactive) | > 100 µM (inactive) | > 100 µM (inactive) | > 100 µM (inactive) | > 100 µM (inactive) | > 100 µM (inactive) | > 100 µM (inactive) | > 100 µM (inactive) | 73.6 µM (inactive)
Nc1ccc2c(c1)C1Oc3ccccc3CC1CO2 (stereo not drawn) | 74.6 µM (inactive) | > 100 µM (inactive) | > 100 µM (inactive) | > 100 µM (inactive) | > 100 µM (inactive) | > 100 µM (inactive) | > 100 µM (inactive) | > 100 µM (inactive) | > 100 µM (inactive) | > 100 µM (inactive) | > 100 µM (inactive) | > 100 µM (inactive) | > 100 µM (inactive) | > 100 µM (inactive) | > 100 µM (inactive) | > 100 µM (inactive) |  | > 100 µM (inactive) | > 100 µM (inactive) | > 100 µM (inactive)
O=c1[nH]nc(-c2ccccc2)n1-c1ccncc1 | > 100 µM (inactive) | > 100 µM (inactive) | > 100 µM (inactive) | > 100 µM (inactive) | > 100 µM (inactive) | > 100 µM (inactive) | > 100 µM (inactive) | > 100 µM (inactive) | > 100 µM (inactive) | > 100 µM (inactive) | > 100 µM (inactive) | > 100 µM (inactive) | > 100 µM (inactive) | > 100 µM (inactive) |  | > 100 µM (inactive) | > 100 µM (inactive) | > 100 µM (inactive) | > 100 µM (inactive) | > 100 µM (inactive)
CC1NC(=O)[C@H](C)N(C)C(=O)[C@@H]2CCCN2C(=O)[C@@H](NC(=O)C(Cc2ccccc2)NC(=O)/C=C/C=C/C=C/C=C/C=C/C(=O)NC2=C(O)CCC2=O)COC(=O)[C@@H]2CCCN2C1=O (stereo partly drawn) (X28-[ξF]SP[NMeA][ξA]P; ester 2-C) | > 100 µM (inactive) | > 100 µM (inactive) | 96.4 µM (inactive) | > 100 µM (inactive) | 78.2 µM (inactive) | > 100 µM (inactive) | > 100 µM (inactive) | > 100 µM (inactive) | 22.7 µM (inactive) | > 100 µM (inactive) | > 100 µM (inactive) |  | > 100 µM (inactive) | > 100 µM (inactive) | > 100 µM (inactive) | > 100 µM (inactive) | > 100 µM (inactive) | 79.3 µM (inactive) | > 100 µM (inactive) | 
O=C1C(Br)=CC2(C=C1Br)CCNC1=C2C(=O)c2[nH]cnc2C1=O | 19.2 µM (inactive) | 21.3 µM (inactive) | 18.1 µM (inactive) | 25.8 µM (inactive) | 12.3 µM (inactive) | 15.5 µM (inactive) | 12.4 µM (inactive) | 13.5 µM (inactive) | 15.8 µM (inactive) | 1.77 µM (inactive) | 14.4 µM (inactive) | 16.8 µM (inactive) | 25.7 µM (inactive) | 14.8 µM (inactive) | 9.12 µM (inactive) | 11.2 µM (inactive) |  | 30.1 µM (inactive) | 15 µM (inactive) | 41.5 µM (inactive)
Nc1nc(O)c2ncn(C3C=CC(CO)C3)c2n1 (stereo not drawn) | > 100 µM (inactive) | > 100 µM (inactive) | > 100 µM (inactive) | > 100 µM (inactive) | > 100 µM (inactive) | > 100 µM (inactive) | > 100 µM (inactive) |  | > 100 µM (inactive) | > 100 µM (inactive) | > 100 µM (inactive) | > 100 µM (inactive) | > 100 µM (inactive) | > 100 µM (inactive) | > 100 µM (inactive) | > 100 µM (inactive) | > 100 µM (inactive) | > 100 µM (inactive) | > 100 µM (inactive) | 
Cc1ccc(C)c(COCCOCn2ccc(N)nc2=O)c1 | > 100 µM (inactive) | > 100 µM (inactive) | > 100 µM (inactive) | > 100 µM (inactive) | > 100 µM (inactive) |  | > 100 µM (inactive) | > 100 µM (inactive) | > 100 µM (inactive) | > 100 µM (inactive) | > 100 µM (inactive) | > 100 µM (inactive) | > 100 µM (inactive) | > 100 µM (inactive) | > 100 µM (inactive) |  | > 100 µM (inactive) | > 100 µM (inactive) | > 100 µM (inactive) | > 100 µM (inactive)
